The source of these data is the SangsterLogP compilation.

This data set is described as follows: method code SF-AS, from DOI: 10.1002/hlca.19830660215. Particulars: for logD: pH 11.0.

A word on the logD: it is the decadic logarithm of the distribution of all forms, ionised or not, between an organic phase and buffer at a given pH. A low value points to a more hydrophilic compound. Take `CN(C)CCCNC(=O)c1ccccc1`: the logD worked out at 1.27.

On to `NCCCNC(=O)c1ccccc1`, for which the logD came out at 0.3.

What is called logP is the decadic logarithm of the partition coefficient of the neutral form, usually between octanol and water. Low values mean lower lipophilicity, high ones higher lipophilicity. The compound `CCN(CC)CCCNC(=O)c1ccccc1OC` yielded a lipophilicity (logP) of 1.76.

The compound `COc1ccccc1C(=O)N1CCN(C)CC1` displayed a logP of 0.29.

With `CCN(CC)CCNC(=O)c1ccccc1OC`, the lipophilicity (logP) was found to be 1.98.

As for `CN(C)CCNC(=O)c1ccccc1`, the logP came to 1.1.

Turning to `NCCCCNC(=O)c1ccccc1`, the pH-dependent lipophilicity (logD) was 0.58.

The compound `COc1ccccc1C(=O)NCCN(C)C` yielded a logP of 1.14.

In turn, `CCN(CC)CCNC(=O)c1ccccc1` returned a pH-dependent lipophilicity (logD) of 1.84.

`NCCNC(=O)c1ccccc1` displayed a pH-dependent lipophilicity (logD) of 0.06.

Turning to `COc1ccccc1C(=O)NCCCCN`, the pH-dependent lipophilicity (logD) turned out to be 0.58.

For `CCN(CC)CCCNC(=O)c1ccccc1`, the logD amounted to 1.56.

Regarding `COc1ccccc1C(=O)NCCN`, the logP was determined as 0.

`COc1ccccc1C(=O)NCCCN(C)C` showed a log partition coefficient (logP) of 1.27.
